Results: paper PMC7316778 (Nature Communications, 2020)
Like-named read-outs stand apart in the source and are kept apart here.

What was measured:
Assay in all cases: SelectScreen kinase assay
STK38L (NDR2) = STK38L (NDR2) (Homo sapiens, UniProt Q9Y2H1); conditions: for Inhibition at 1 µM (%): LanthaScreen Binding
Experimental: (§1) Selectivity profiling assays were performed by the Invitrogen SelectScreen™ Services. […] The concentration of ATP was selected to be equal to the KM, unless indicated otherwise.

CDC42 BPA (MRCKA) = CDC42 BPA (MRCKA) (Homo sapiens, UniProt Q5VT25)
Experimental: as §1

MYO3B (MYO3 beta) = molecular target: T1, MYO3B (MYO3 beta) (Homo sapiens, UniProt Q8WXR4)
T1 sequence (Q8WXR4 1-1341): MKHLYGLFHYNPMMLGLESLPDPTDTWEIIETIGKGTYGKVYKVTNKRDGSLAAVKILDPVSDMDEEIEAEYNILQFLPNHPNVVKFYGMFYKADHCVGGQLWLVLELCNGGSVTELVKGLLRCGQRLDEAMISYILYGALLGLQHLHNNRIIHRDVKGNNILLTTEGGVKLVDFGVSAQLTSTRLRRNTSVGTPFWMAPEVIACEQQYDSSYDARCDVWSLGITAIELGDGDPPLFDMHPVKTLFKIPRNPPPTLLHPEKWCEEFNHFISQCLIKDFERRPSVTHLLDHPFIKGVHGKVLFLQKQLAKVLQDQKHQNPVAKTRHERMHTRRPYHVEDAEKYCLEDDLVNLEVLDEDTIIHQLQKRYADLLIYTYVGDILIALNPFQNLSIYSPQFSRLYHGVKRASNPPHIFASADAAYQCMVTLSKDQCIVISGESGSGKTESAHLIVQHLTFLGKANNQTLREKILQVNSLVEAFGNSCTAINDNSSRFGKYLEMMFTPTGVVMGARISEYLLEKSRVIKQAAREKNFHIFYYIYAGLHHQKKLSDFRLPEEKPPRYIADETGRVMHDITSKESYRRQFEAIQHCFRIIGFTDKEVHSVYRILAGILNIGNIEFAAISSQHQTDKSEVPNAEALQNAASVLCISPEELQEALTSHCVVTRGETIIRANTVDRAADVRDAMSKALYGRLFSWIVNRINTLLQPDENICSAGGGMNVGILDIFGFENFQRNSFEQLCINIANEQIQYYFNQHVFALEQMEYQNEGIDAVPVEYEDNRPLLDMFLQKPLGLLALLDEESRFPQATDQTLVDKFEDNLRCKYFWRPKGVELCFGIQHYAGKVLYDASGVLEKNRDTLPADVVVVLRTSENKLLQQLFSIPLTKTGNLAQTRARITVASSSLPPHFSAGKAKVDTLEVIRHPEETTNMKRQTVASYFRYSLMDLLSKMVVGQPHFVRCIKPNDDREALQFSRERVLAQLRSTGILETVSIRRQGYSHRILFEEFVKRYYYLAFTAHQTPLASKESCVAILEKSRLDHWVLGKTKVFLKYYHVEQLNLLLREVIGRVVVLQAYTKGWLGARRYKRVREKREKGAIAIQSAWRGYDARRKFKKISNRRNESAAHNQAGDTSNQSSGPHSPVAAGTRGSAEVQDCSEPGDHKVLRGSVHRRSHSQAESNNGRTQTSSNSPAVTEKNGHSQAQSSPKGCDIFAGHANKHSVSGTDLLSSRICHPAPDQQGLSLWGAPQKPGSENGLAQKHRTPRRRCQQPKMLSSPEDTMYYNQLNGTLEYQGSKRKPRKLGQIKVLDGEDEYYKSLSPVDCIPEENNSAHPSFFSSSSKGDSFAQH
Experimental: as §1

IRAK3 = molecular target: T2, IRAK3 (Homo sapiens, UniProt Q9Y616)
T2 sequence (Q9Y616 1-596): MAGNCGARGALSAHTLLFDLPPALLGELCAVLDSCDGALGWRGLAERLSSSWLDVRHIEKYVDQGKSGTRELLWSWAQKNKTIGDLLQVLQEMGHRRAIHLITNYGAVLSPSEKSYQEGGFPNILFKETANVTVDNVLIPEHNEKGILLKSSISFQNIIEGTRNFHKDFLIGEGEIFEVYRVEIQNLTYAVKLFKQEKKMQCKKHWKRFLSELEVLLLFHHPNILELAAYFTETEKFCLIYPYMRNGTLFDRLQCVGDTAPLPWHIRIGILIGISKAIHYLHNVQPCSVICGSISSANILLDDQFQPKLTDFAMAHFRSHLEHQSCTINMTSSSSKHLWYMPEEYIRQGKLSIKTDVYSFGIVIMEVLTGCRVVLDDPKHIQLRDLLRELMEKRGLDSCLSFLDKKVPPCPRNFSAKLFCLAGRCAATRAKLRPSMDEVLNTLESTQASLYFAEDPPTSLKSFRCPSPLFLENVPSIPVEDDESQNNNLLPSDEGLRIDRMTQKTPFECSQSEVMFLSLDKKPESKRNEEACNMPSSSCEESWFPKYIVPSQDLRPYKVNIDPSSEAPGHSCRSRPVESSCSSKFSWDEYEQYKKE
Experimental: as §1

[1] = 1 h, 1 μM WEL028, 1 h preincubation

STK38L (NDR2), sequence (Q9Y2H1 whole entry): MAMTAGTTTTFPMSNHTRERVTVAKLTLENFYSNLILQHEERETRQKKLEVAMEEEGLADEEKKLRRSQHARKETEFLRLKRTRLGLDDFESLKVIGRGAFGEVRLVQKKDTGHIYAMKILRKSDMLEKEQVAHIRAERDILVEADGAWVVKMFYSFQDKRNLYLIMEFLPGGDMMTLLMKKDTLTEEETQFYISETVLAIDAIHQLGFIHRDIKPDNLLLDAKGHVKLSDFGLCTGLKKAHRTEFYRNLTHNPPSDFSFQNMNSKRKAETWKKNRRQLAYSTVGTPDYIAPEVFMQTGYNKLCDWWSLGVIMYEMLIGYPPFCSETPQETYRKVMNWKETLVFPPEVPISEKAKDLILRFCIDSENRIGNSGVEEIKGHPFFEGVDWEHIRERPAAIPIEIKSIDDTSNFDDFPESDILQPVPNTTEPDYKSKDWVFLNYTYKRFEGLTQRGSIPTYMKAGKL
CDC42 BPA (MRCKA), sequence (Q5VT25 whole entry): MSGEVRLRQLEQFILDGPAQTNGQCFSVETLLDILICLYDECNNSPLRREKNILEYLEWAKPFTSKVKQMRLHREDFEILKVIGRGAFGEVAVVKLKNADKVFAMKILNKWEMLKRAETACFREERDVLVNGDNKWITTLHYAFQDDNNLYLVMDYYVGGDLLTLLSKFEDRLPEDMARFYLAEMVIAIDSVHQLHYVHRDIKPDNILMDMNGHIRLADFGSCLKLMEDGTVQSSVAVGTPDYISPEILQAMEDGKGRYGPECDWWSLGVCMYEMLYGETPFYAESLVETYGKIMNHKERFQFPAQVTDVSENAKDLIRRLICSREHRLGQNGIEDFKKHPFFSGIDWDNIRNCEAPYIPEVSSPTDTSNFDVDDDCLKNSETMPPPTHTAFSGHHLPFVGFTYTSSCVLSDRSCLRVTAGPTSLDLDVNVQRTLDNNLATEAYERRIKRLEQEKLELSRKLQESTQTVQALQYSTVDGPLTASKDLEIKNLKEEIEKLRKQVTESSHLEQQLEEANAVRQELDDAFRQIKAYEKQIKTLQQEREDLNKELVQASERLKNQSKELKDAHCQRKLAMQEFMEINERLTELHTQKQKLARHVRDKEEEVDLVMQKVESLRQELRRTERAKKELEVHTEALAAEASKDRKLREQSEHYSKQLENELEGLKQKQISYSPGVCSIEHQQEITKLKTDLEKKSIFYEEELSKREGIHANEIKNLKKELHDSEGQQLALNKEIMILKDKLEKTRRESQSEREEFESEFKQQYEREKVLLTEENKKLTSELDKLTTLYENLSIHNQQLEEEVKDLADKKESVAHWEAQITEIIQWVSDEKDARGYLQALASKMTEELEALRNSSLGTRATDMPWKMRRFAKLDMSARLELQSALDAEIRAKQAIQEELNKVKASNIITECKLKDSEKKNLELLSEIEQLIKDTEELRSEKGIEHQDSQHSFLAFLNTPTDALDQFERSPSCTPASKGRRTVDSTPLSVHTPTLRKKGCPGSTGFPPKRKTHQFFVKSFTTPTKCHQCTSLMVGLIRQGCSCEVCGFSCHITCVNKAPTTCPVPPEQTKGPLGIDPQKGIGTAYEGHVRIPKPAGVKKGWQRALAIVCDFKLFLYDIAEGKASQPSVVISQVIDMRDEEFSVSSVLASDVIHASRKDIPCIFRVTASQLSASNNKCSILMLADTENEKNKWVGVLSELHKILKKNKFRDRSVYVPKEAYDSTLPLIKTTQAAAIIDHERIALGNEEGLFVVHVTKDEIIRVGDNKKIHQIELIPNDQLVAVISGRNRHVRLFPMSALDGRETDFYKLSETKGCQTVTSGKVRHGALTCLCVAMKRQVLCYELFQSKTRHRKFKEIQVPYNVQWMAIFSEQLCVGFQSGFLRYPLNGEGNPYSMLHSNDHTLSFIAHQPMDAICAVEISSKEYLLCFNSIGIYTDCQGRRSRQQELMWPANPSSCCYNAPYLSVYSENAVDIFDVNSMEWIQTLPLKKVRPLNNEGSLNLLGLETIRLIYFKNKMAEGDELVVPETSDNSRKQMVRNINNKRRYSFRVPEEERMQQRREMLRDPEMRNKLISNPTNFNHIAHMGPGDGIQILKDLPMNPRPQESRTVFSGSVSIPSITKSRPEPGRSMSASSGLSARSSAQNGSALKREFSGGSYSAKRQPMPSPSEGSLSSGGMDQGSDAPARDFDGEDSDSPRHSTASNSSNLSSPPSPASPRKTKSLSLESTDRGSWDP

## C#CCOc1ccc(Nc2ncc(Cl)c(Nc3ccccc3NC(=O)C=C)n2)c(OC)c1 [Compound 6]
STK38L (NDR2)
  Inhibition at 1 µM (%): 2%
STK38L (NDR2); listed as WEL028, 1 µM
  Inhibition at 1 µM (%): 7%
STK38L (NDR2); [1]
  inhibition at 1 µM: 5%
CDC42 BPA (MRCKA); [1]
  inhibition at 1 µM: -7%
CDC42 BPA (MRCKA); CDC42 BPA (MRCKA), 1 µM, ZLYTE, ATP Km app
  Inhibition at 1 µM (%): -20%
MYO3B (MYO3 beta); [1]
  inhibition at 1 µM: 14%
MYO3B (MYO3 beta); MYO3B (MYO3 beta), 1 µM, LanthaScreen Binding, listed as WEL028, 1 µM
  Inhibition at 1 µM (%): 13%
MYO3B (MYO3 beta); read-out: Inhibition at 1 µM (%), MYO3B (MYO3 beta), 1 µM, LanthaScreen Binding
  inhibition at 1 µM: 15%
IRAK3; [1]
  inhibition at 1 µM: 56%
IRAK3; IRAK3, 1 µM, LanthaScreen Binding, listed as WEL028, 1 µM
  Inhibition at 1 µM (%): 58%
IRAK3; read-out: Inhibition at 1 µM (%), IRAK3, 1 µM, LanthaScreen Binding
  inhibition at 1 µM: 55%
